Test results: ChEMBL document CHEMBL3507680, “University of Dundee, Gates Library screen for HepG2 cell viability”

Assay: Human HepG2 cell viability assay in 384 well format
Format: toxicity, cell-based
Set-up: dose 125 nL, time 70.5 hour; concentration not given beside the values
Conditions: HepG2 cells, read-out: Inhibition

SMILES	cytotoxicity at 70.5 h [%]
Cc1cnn(CCNCc2nnc(C3CC3)o2)c1	11.6
CCN1C[C@H]2[C@@H](C1)N(c1ncc(F)cn1)CC[C@H]2OC	14.2
Clc1cc(N2CCN3CCCCC3C2)nc2[nH]ccc12 (configuration not stated)	-0.311
CC(=O)N1CCC2(CCN(C(=O)c3ccc(Cl)c(C(F)(F)F)c3)C2)C1 (configuration not stated)	-11
O=C(Cc1ccc(Cl)cc1)N1CCC(O)(C(F)(F)F)C1 (configuration not stated)	-2.11
Cc1nn(C)cc1CN1CCCCCC1c1ccccc1Cl (configuration not stated)	17.7
CN(C)CCCNC(=O)c1ccnc(OCc2ccccc2)c1	-1.38
CS(=O)(=O)NC[C@]12COC[C@H]1CN(C(=O)C1CC=CC1)C2	-3.37
N#Cc1ccc(OC2CCN(C(=O)Cc3cccs3)CC2)nc1	-0.57
CCOC(=O)N1CCC2(CC1)N=C(CCC(C)C)NC2=O	-1.58
Cc1cnn(C2CCCN(C(=O)c3cn4ccccc4n3)C2)c1 (configuration not stated)	17.4
CN1C(=O)CC(C(=O)O)C12CCN(Cc1ccc(Cl)cc1F)CC2 (configuration not stated)	2.06
COc1ccccc1C1(CNc2cc(C(=O)N(C)C)ccn2)CC1	0.399
CC(NCc1ccc(F)cc1)c1ccc2[nH]c(=O)[nH]c2c1 (configuration not stated)	0.625
COCCNC(=O)CN1CCN(c2nc(C)cs2)CC1	-3.26
Fc1cccc(-n2cccn2)c1NCc1nnc(C2CC2)o1	-2.54
CCN1CC2(CCC1=O)CCN(CCOc1ccc(F)cc1)CC2	-13
CNS(=O)(=O)c1ccc(CNC(=O)c2cc(-c3ccccn3)no2)cc1	-8.91
O=C1COC2(CCN(Cc3nccs3)CC2)CN1c1ccccc1	5.28
CCN1CCC(CNCc2cc(OC)ccc2OC)C1 (configuration not stated)	5.64
COc1ccccc1OCC(=O)NCC(C)(O)C1CC1 (configuration not stated)	-15.3

SMILES	cytotoxicity at 70.5 h [%]
c1cncc(NCCNC2CSCCSC2)c1	5.88
Cc1nc(CN2CC[C@@H]3[C@@H](CCC(=O)N3CCc3c[nH]cn3)C2)co1	13
Cc1ccc(S(=O)(=O)Nc2ccc(-n3cccc3C(=O)O)c(C)c2)cc1	-6.38
O=C(CC1CC1)N1CCC2(CC1)CC(Oc1ccccc1)CO2 (configuration not stated)	-4.92
CCCc1c(C2CCOC(C)(C)C2)nc(N)c(C#N)c1-c1cnn(C)c1 (configuration not stated)	-2.75
CNC(=O)c1cn[nH]c1C1CCN(Cc2cn(C)nc2C)C1 (configuration not stated)	-12.4
Nc1nc(O)cc(N2CCC(c3cc(Cc4ccccc4)n[nH]3)CC2)n1	-3.99
O=C(Cc1ccc(S(=O)(=O)C(F)F)cc1)N1CCC1	-10.6
Cc1cc(C)cc(-c2cccc(CC3(C(=O)O)CCOCC3)c2)c1	43.6
CCOCC1CN(Cc2ccc(OC)cc2)Cc2nn(C)cc21 (configuration not stated)	25.5
Cc1ccoc1C(=O)N1CCCC(CNS(C)(=O)=O)C1 (configuration not stated)	18
COCC(=O)N1CCN(CCn2cccn2)c2nc(C)ccc2C1	0.00132
CCc1nnsc1C(=O)N1CCCN(Cc2cnn(C)c2)CC1	-27.3
Cc1nn(CCNC(C)Cn2cncn2)c(C)c1Cl (configuration not stated)	7.1
CCc1ccc(CN(C)Cc2nc(-c3cnccn3)no2)nc1	-13.4
COC(=O)N1CCCCC1C(=O)N1CCCN(c2ccnc(C)c2)CC1 (configuration not stated)	-7.79
COCCOCC1CCN(C(=O)c2ccc3[nH]cnc3c2)C1 (configuration not stated)	2.45
O=C(CNC1CCc2ncnn2C1)NCCc1cccs1 (configuration not stated)	2.68
Cc1ccnc(NCc2cn3c(C)csc3n2)n1	-11.5
CC(C)c1nc(CNC2CCCN(c3cccnn3)C2)no1 (configuration not stated)	21
CCCN1CCCC2(CCN(Cc3noc(C4CCCC4)n3)C2)C1=O (configuration not stated)	3.33

SMILES	cytotoxicity at 70.5 h [%]
CN(C(=O)c1ccc(C2CCCO2)s1)C1CCS(=O)(=O)CC1 (configuration not stated)	2.73
CCn1cc(CN2CCN(C(=O)N3CCOCC3)CC2)cn1	16.2
N#Cc1ccccc1N1CCCN(C(=O)CCn2cccn2)CC1	-23
COc1cccc(S(=O)(=O)N2CCN(C)[C@@H]3CS(=O)(=O)C[C@@H]32)c1	-4.74
O=C(CCCc1nc(C2CC2)no1)N1CCCC(c2ccn[nH]2)C1 (configuration not stated)	-7.72
COc1ncccc1CN1CCc2[nH]nc(C(=O)N3CCCC3C)c2C1 (configuration not stated)	-3.57
CCCn1cnc2c1CN(S(=O)(=O)Cc1ccccc1)[C@H](C(=O)OC)C2	0.651
O=C1CN(Cc2cn(CC3CCN(C4CCSCC4)CC3)nn2)CCN1	20.3
CNC(=O)N1CCC(=Cc2ccccc2)CC1	-12
CN(Cc1ccc(Cl)cc1)C(=O)Nc1cnn(CC(N)=O)c1	8.79
CC1(C)CN(CC(F)(F)F)CCN1CC(=O)NC1CC1	-6.02
COc1ccccc1OC1CN(C(=O)c2ccccc2C(C)=O)C1	-19.5
Cc1noc(C2CCN(C(=O)CCc3ccccn3)CC2)n1	-4.44
Cc1cc(Br)c(O)c(-c2nc(N3CCOCC3)sc2C)c1	5.07
COc1ccc(CN2CCC(c3nnc(-c4scnc4C)o3)CC2)cc1	-3.83
CSc1ccc(C(=O)C2CCCN(C(=O)CCCn3cncn3)C2)cc1 (configuration not stated)	-6.96
CCc1nc(C2CCCN2CC(=O)N2CCCc3ccccc32)no1 (configuration not stated)	22
Cn1ccc(CN2CCC3(CC2)CC(Nc2ccccn2)CO3)n1 (configuration not stated)	-2.31
CC(C)CCN1C(=O)C2(NC(=O)c3ccccc3O2)c2ccccc21 (configuration not stated)	-15.1
Cc1cc(=O)n(CC(=O)NC(C)C)c(Nc2ccc(F)c(C)c2)n1	23.2
Cc1cc(NCc2nnc3n2CCC3)n2nc(C)c(C)c2n1	-12.3

SMILES	cytotoxicity at 70.5 h [%]
Cc1nnc(NC(=O)C(C)n2ncc(Br)c2C)s1 (configuration not stated)	24.3
Cn1cnc(S(=O)(=O)N2CCCn3cnc(CN4CCCC4)c3C2)c1	-3.74
CC(C)OCc1nn(CC2CC2)c2c1CN(Cc1ccco1)CC2	-1.8
O=C(C1CCOCC1)N1CCN(CC2CC2)c2ncccc2C1	-14.2
COCC(=O)NCc1cc(=O)n2c(n1)CN(Cc1ccsc1)CCC2	-12.5
CC(C)[C@H]1CN(Cc2ccncc2)C[C@@H]1NC(=O)C1(C#N)CCOCC1	-1.7
CC(C)n1cc(CN2CCCN(C(=O)CN3CCCC3=O)CC2)cn1	58
CN(C)S(=O)(=O)CCNc1ncc2c(n1)CCN2c1ccccc1	-6.26
Cc1cnn(CC2CN(Cc3ccc(C(N)=O)cc3)CCO2)c1 (configuration not stated)	-7.11
NC(=O)[C@@H]1Cc2ccccc2CN1S(=O)(=O)N1CCCCC1	-1.22
OC1(CNCCCN2CCCc3ccccc32)CNCCOC1 (configuration not stated)	-13
CC(C)N(C(=O)CCc1cccc(F)c1)C1CCOCC1	-4.3
COC1CCN(CCNC(=O)NCC(C)c2cccc(C)c2)CC1 (configuration not stated)	9.93
Cc1cc(C)n(CC(=O)N2Cc3cnc(C(C)(C)C)nc3C2)n1	-4.01
c1ccc(C2CCN(c3cncc(-n4cccn4)n3)CC2)cc1	-4.22
O=C(NCc1cc(=O)n2c(n1)CN(CC1CC1)CCC2)c1ccsc1	17.3
CCC(CCNC(=O)c1cc(C2CC2)nc2c1cnn2C)n1cccn1 (configuration not stated)	-19.4
CC(C)Cc1cc(C(=O)NCCc2nnc(N)s2)n(C)n1	-23.5
COc1cccc(Nc2nc(N3CCCC3)nc3c2CNCC3)c1	43.7
